Among the data in ChEMBL document CHEMBL1152098, “A new rearranged cholestane glycoside from ornithogalum saundersiae bulbs exhibiting potent cytostatic activities on leukemia HL-60 and molt-4 cells” (Bioorg Med Chem Lett, 1996) are IC50 values, retold here.

One test relates to MOLT-4. The test is described as follows: Compound was tested for its anticancer activity against human T-lymphocytic leukemia MOLT-4 cells. In kind it is functional, cell-based.
A further test concerns HL-60. The test is described as follows: Compound was tested for its anticancer activity against HL-60 cells. The following applies: Homo sapiens. The class given is functional, cell-based.

What is called IC50 is the midpoint of a concentration-inhibition curve. A high value points to a need for much substance. Take `COc1ccc(C(=O)O[C@@H]2[C@H](O)[C@@H](O)[C@H](O[C@@H]3[C@H](O[C@H]4CC[C@@]5(C)C(=CC[C@H]6[C@@H]7C[C@@H]8O[C@@H](O)[C@H](C=C(C)C)[C@]9(C)O[C@@H](OC)C7(CC[C@@H]65)[C@H]89)C4)O[C@@H](CO)[C@@H](O)[C@@H]3O)O[C@H]2C)cc1` (stereo not given in full): the figures for the IC50 in the test with MOLT-4 and in the test on HL-60 were 3.2 nM and 9.2 nM, respectively.
The compound `COc1cccc2c1C(=O)c1c(O)c3c(c(O)c1C2=O)C[C@@](O)(C(=O)CO)C[C@@H]3O[C@H]1C[C@H](N)[C@H](O)[C@H](C)O1` [DOXORUBICIN] came in with an IC50 in the test on MOLT-4 of 35 nM.
Still for that read-out and setting: with `COc1cc([C@@H]2c3cc4c(cc3[C@@H](O[C@@H]3O[C@@H]5CO[C@@H](C)O[C@H]5[C@H](O)[C@H]3O)[C@H]3COC(=O)[C@H]23)OCO4)cc(OC)c1O` [ETOPOSIDE] the figure was 38 nM; with `CN(Cc1cnc2nc(N)nc(N)c2n1)c1ccc(C(=O)N[C@@H](CCC(=O)O)C(=O)O)cc1` [METHOTREXATE], 48 nM.
